tested on: MC3T3-E1 cells; test: Alkaline phosphatase activity (maturation) of MC3T3-E1 preosteoblastic cells; assay type: cell-based; settings: increasing amounts of solvent (triacetin 0 to 6 mM); determined after 6 days; FIG. 2
Protocol: To compare the effect of various plasticizer regarding their osteogenetic effect to that of triacetin, MC3T3-E1 cells were grown in an alpha-modified Minimum Essential Medium (Life Technologies, Inc., Grand Island, N.Y.) containing 10% fetal calf serum (Life Technologies, Inc.), 50 μg/ml gentamycin, and 50 μg/ml ascorbic acid. To examine the action of triacetin on this cell line, 1×10^5 cells per well were plated in 6-well plates and triacetin subsequently added. Medium exchange was performed after 3 days and alkaline phosphatase (ALP) was determined according to Lowry, O. et al. [J. Biol. Chem. 207 (1954) 19-37]: p-nitrophenol liberated was converted to p-nitrophenylate by adding 400 μl of 1 M NaOH, which was quantitated by measuring the absorbance at 410 nm (epsilon=17500/mol×cm). Alkaline phosphatase activity was normalized to total protein and expressed as nmol nitrophenylate generated per min per mg protein.
MC3T3-E1 cells were treated with increasing amounts of different solvents and the effect on the maturation of MC3T3-E1 cells determined after 6 days by alkaline phosphatase activity.

SMILES | Maturation of MC3T3-E1 cells determined by alkaline phosphatase activity
CN(C)C=O [N,N-dimethylformamide] | no positive effect
C[S+](C)[O-] [dimethylsulfoxide] | no positive effect
CCO [ethanol] | no positive effect
CO [methanol] | no positive effect
CC(=O)OCC(COC(C)=O)OC(C)=O [triacetin, 1,2,3-Triacetoxypropane] | increases in a concentration dependent manner
